Data: article PMC5666424, “Marine-Derived 2-Aminoimidazolone Alkaloids. Leucettamine B-Related Polyandrocarpamines Inhibit Mammalian and Protozoan DYRK & CLK Kinases” (Marine Drugs, 2017)

Assays:
Assay in all cases: KinomeScan
Assay type in all cases: binding
Conditions in all cases: 1 μM
[1] = target: T1, CSNK1D (Homo sapiens, UniProt P48730)
T1 construct: purchased DiscoverX (KINOMEscan)
Description: (§1) Assays were performed essentially as described previously. For most assays, kinase-tagged T7 phage strains were grown in parallel in 24-well blocks in an E. coli host derived from the BL21 strain. E. coli were grown to log-phase and infected with T7 phage from a frozen stock (multiplicity of infection ~0.1) and incubated with shaking at 32 °C until lysis (~90 min). The lysates were centrifuged (6000× g) and filtered (0.2 μm) to remove cell debris. The remaining kinases were produced in HEK-293 cells and subsequently tagged with DNA for qPCR detection. […] The liganded beads were blocked with excess biotin and washed with blocking buffer (SeaBlock (Pierce, ThermoFisher Scientific, Illkirch, France), 1% BSA, 0.05% Tween 20, 1 mM DTT) to remove unbound ligand and to reduce non-specific phage binding. […] An 11-point threefold serial dilution of each test compound was prepared in 100% DMSO at 100× final test concentration which and subsequently diluted to 1× in the assay. All reactions were performed in polystyrene 96-well plates in a final volume of 0.135 mL. […] The kinase concentration in the eluates was measured by qPCR.

[2] = target: T2, ACVR2B (Homo sapiens, UniProt Q13705)
T2 construct: purchased DiscoverX (KINOMEscan)
Description: as §1

[3] = target: T3, IKK-beta (Homo sapiens, UniProt O14920)
T3 construct: purchased DiscoverX (KINOMEscan)
Description: as §1

[4] = target: T4, MEK6 (Homo sapiens, UniProt P52564)
T4 construct: purchased DiscoverX (KINOMEscan)
Description: as §1

[5] = target: T5, JAK2(JH1domain-catalytic) (Homo sapiens, UniProt O60674)
T5 construct: JAK2(JH1domain-catalytic); purchased DiscoverX (KINOMEscan)
T5 sequence (O60674 840-1132 limits assumed): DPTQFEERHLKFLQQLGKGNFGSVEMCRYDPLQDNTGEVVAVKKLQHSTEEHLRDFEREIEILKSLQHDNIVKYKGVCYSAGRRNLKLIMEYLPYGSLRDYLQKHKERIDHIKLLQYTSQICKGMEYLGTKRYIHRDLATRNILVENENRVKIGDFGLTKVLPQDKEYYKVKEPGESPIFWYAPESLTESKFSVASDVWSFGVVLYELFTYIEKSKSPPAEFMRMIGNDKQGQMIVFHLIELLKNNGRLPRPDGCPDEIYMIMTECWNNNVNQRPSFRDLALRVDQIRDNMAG
Description: as §1

[6] = target: T6, CSNK1G2 (Homo sapiens, UniProt P78368)
T6 construct: purchased DiscoverX (KINOMEscan)
Description: as §1

[7] = target: T7, IKK-epsilon (Homo sapiens, UniProt Q14164)
T7 construct: purchased DiscoverX (KINOMEscan)
T7 sequence (Q14164 whole entry): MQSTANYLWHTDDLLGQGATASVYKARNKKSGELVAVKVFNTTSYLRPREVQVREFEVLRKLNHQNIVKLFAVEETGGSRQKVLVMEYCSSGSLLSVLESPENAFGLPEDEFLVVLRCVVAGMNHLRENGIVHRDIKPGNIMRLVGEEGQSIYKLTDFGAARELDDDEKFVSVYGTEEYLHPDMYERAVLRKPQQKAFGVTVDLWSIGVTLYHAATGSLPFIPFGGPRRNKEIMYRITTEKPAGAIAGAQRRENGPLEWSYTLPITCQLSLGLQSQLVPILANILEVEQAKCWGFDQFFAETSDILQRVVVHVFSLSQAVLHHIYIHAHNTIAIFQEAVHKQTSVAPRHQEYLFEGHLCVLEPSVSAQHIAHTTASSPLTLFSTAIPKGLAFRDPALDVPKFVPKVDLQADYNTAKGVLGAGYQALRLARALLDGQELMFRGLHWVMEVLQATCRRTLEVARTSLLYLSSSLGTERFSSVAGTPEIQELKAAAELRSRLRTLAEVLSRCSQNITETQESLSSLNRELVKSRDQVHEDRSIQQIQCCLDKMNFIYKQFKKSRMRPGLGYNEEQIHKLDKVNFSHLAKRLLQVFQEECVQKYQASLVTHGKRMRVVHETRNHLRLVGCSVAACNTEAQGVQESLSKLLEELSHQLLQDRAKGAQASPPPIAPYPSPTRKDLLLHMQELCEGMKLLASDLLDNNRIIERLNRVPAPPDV
Description: as §1

[8] = target: T8, FES (Homo sapiens, UniProt P07332)
T8 construct: purchased DiscoverX (KINOMEscan)
Description: as §1

[9] = target: T9, KIT(L576P) (Homo sapiens, UniProt P10721, L576P)
T9 construct: purchased DiscoverX (KINOMEscan)
Description: as §1

[10] = target: T10, FLT3(N841I) (Homo sapiens, UniProt P36888, N841I)
T10 construct: purchased DiscoverX (KINOMEscan)
Description: as §1

[11] = target: T11, TGFBR1 (Homo sapiens, UniProt P36897)
T11 construct: purchased DiscoverX (KINOMEscan)
T11 sequence (P36897 34-503): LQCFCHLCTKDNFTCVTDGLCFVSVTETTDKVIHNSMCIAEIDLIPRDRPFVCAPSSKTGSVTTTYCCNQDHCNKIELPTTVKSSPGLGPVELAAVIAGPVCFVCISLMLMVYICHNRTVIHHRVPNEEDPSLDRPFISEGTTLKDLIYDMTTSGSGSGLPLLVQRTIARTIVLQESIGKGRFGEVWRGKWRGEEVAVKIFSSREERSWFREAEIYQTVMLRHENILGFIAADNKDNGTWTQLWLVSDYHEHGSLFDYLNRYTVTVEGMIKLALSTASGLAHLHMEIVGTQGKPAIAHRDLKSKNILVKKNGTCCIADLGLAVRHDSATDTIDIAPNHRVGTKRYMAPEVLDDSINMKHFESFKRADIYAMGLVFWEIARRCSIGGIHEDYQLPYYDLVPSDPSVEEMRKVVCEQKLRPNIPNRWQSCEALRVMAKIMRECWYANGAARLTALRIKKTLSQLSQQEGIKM
Description: as §1

[12] = target: T12, TNK2 (Homo sapiens, UniProt Q07912)
T12 construct: purchased DiscoverX (KINOMEscan)
Description: as §1

[13] = target: T13, FER (Homo sapiens, UniProt P16591)
T13 construct: purchased DiscoverX (KINOMEscan)
Description: as §1

[14] = target: T14, AKT3 (Homo sapiens, UniProt Q9Y243)
T14 construct: purchased DiscoverX (KINOMEscan)
T14 sequence (Q9Y243 whole entry): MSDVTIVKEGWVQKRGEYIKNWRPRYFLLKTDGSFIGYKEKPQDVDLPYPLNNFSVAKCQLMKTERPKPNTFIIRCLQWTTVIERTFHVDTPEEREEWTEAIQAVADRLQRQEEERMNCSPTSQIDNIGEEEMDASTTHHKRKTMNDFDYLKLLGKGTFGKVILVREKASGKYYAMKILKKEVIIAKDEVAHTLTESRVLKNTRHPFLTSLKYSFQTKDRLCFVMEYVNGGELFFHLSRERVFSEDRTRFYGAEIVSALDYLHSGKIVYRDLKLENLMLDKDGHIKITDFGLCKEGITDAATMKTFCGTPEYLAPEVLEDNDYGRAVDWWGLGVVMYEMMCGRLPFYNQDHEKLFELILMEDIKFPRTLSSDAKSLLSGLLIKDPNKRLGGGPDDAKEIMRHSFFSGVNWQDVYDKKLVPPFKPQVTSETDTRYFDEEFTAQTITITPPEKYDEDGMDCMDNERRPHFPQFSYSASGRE
Description: as §1

[15] = target: T15, NIM1 (Homo sapiens, UniProt Q8IY84)
T15 construct: purchased DiscoverX (KINOMEscan)
Description: as §1

[16] = target: T16, EPHB1 (Homo sapiens, UniProt P54762)
T16 construct: purchased DiscoverX (KINOMEscan)
Description: as §1

[17] = target: T17, CSNK2A2 (Homo sapiens, UniProt P19784)
T17 construct: purchased DiscoverX (KINOMEscan)
Description: as §1

[18] = target: T18, ABL1-phosphorylated (Homo sapiens, UniProt P00519)
T18 construct: purchased DiscoverX (KINOMEscan)
Description: as §1

[19] = target: T19, DAPK1 (Homo sapiens, UniProt P53355)
T19 construct: purchased DiscoverX (KINOMEscan)
T19 sequence (P53355 whole entry): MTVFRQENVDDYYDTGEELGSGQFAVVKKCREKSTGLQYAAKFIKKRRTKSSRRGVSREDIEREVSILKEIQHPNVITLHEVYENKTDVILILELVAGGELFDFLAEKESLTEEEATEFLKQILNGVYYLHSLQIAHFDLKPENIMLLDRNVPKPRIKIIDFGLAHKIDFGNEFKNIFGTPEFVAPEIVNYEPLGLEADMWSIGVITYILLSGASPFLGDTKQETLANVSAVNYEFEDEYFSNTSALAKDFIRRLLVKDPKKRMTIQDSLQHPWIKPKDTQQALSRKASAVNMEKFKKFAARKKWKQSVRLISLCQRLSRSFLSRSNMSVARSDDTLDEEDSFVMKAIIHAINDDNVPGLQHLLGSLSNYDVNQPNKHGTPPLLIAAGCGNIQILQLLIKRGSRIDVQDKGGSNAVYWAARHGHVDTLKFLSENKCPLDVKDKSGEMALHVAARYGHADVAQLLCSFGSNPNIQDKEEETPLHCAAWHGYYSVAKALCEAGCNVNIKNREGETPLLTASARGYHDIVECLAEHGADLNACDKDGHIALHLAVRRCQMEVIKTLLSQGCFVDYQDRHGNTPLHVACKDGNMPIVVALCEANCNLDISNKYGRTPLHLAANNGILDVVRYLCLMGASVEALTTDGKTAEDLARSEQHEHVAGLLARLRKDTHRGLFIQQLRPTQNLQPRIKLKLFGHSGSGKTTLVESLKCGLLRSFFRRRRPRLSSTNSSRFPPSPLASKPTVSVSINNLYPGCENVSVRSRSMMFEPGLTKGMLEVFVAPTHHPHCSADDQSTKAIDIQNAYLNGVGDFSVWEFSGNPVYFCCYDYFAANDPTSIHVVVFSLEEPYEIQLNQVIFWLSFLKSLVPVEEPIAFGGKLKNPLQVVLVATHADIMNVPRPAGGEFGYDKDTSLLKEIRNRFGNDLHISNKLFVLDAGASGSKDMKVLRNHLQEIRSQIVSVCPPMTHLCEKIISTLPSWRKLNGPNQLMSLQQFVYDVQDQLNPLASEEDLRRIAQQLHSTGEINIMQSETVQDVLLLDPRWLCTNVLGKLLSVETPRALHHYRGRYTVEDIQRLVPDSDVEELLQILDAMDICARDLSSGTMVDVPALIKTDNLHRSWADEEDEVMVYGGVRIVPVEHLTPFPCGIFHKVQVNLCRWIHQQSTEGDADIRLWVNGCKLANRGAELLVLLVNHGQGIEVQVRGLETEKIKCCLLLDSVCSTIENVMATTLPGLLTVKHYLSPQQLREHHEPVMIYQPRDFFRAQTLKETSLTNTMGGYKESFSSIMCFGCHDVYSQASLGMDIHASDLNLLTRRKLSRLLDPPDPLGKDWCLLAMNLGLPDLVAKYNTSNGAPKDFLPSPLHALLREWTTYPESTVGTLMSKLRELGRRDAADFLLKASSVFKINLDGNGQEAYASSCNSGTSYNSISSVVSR
Description: as §1

[20] = target: T20, AKT1 (Homo sapiens, UniProt P31749)
T20 construct: purchased DiscoverX (KINOMEscan)
T20 sequence (P31749 whole entry): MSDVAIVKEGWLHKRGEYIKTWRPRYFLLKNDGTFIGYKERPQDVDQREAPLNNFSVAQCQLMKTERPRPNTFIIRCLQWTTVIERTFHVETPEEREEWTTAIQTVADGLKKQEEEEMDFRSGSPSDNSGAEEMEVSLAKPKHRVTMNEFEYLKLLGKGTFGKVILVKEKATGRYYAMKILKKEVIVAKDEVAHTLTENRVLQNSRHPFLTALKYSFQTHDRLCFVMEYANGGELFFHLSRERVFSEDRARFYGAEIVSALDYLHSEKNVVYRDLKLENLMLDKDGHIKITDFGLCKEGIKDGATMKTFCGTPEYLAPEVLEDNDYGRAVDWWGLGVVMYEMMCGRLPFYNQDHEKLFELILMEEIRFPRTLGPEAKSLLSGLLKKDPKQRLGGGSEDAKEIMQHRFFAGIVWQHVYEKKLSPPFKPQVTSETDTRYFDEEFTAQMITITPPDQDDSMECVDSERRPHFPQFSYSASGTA
Description: as §1

[21] = target: T21, EPHA3 (Homo sapiens, UniProt P29320)
T21 construct: purchased DiscoverX (KINOMEscan)
Description: as §1

[22] = target: T22, TLK2 (Homo sapiens, UniProt Q86UE8)
T22 construct: purchased DiscoverX (KINOMEscan)
Description: as §1

[23] = target: T23, KIT(V559D,T670I) (Homo sapiens, UniProt P10721, T670I/V559D)
T23 construct: purchased DiscoverX (KINOMEscan)
Description: as §1

[24] = target: T24, NEK5 (Homo sapiens, UniProt Q6P3R8)
T24 construct: purchased DiscoverX (KINOMEscan)
Description: as §1

[25] = target: T25, AXL (Homo sapiens, UniProt P30530)
T25 construct: purchased DiscoverX (KINOMEscan)
Description: as §1

[26] = target: T26, CDK8 (Homo sapiens, UniProt P49336)
T26 construct: purchased DiscoverX (KINOMEscan)
Description: as §1

[27] = target: T27, ITK (Homo sapiens, UniProt Q08881)
T27 construct: purchased DiscoverX (KINOMEscan)
Description: as §1

[28] = target: T28, CAMK2A (Homo sapiens, UniProt Q9UQM7)
T28 construct: purchased DiscoverX (KINOMEscan)
Description: as §1

[29] = target: T29, JNK3 (Homo sapiens, UniProt P53779)
T29 construct: purchased DiscoverX (KINOMEscan)
Description: as §1

[30] = target: T30, MYO3A (Homo sapiens, UniProt Q8NEV4)
T30 construct: purchased DiscoverX (KINOMEscan)
Description: as §1

[31] = target: T31, ABL1(H396P)-phosphorylated (Homo sapiens, UniProt P00519, H396P)
T31 construct: purchased DiscoverX (KINOMEscan)
Description: as §1

[32] = target: T32, ABL2 (Homo sapiens, UniProt P42684)
T32 construct: purchased DiscoverX (KINOMEscan)
Description: as §1

[33] = target: T33, MAP4K2 (Homo sapiens, UniProt Q12851)
T33 construct: purchased DiscoverX (KINOMEscan)
Description: as §1

[34] = target: T34, ZAP70 (Homo sapiens, UniProt P43403)
T34 construct: purchased DiscoverX (KINOMEscan)
Description: as §1

[35] = target: T35, ARK5 (Homo sapiens, UniProt O60285)
T35 construct: purchased DiscoverX (KINOMEscan)
Description: as §1

[36] = target: T36, CDK7 (Homo sapiens, UniProt P50613)
T36 construct: purchased DiscoverX (KINOMEscan)
Description: as §1

[37] = target: T37, SNRK (Homo sapiens, UniProt Q9NRH2)
T37 construct: purchased DiscoverX (KINOMEscan)
T37 sequence (Q9NRH2 whole entry): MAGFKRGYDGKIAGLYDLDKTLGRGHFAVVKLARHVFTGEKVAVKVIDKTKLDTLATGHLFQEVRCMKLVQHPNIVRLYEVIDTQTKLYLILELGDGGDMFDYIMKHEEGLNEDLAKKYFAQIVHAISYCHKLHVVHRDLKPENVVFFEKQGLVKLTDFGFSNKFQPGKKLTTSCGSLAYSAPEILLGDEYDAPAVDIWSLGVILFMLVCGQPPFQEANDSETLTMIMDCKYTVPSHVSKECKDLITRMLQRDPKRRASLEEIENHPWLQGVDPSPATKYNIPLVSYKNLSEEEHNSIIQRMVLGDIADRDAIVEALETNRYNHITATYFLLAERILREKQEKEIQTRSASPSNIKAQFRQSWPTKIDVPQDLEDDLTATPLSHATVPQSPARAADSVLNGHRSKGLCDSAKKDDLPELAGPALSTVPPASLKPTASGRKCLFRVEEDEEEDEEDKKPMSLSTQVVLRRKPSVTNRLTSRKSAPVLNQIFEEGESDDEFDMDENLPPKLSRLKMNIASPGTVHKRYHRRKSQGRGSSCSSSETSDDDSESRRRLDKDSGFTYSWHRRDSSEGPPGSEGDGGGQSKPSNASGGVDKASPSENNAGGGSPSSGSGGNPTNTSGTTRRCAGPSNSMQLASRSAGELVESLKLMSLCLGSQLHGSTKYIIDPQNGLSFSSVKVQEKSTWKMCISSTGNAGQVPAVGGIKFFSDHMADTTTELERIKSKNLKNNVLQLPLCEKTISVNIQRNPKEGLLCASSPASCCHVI
Description: as §1

T1 sequence (P48730 whole entry): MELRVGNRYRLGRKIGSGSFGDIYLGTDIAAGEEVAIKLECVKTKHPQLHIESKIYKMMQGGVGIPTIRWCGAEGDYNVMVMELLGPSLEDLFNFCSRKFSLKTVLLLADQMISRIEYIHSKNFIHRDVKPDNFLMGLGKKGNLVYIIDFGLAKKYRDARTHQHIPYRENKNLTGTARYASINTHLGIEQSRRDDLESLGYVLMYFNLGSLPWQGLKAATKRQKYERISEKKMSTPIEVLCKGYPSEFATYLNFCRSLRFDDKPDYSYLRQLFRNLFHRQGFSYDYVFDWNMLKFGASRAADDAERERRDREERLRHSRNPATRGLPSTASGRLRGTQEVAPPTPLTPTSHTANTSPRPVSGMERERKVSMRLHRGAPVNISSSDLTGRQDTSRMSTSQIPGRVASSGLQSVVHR

For COc1cc(/C=C2\N=C(N)NC2=O)ccc1O [Polyandrocarpamine A], the Score [1] was 70, the Score [2] was 99 and the Score [3] was 100. The Score [4] was 100, the Score [5] was 97 and the Score [6] was 100. The Score [7] was 89, the Score [8] was 96 and the Score [9] was 99. The Score [10] was 100, the Score [11] was 100 and the Score [12] was 100. For the same molecule, the Score [13] was 100, the Score [14] was 100 and the Score [15] was 100. The Score [16] was 89, the Score [17] was 26 and the Score [18] was 100. For the same molecule, the Score [19] was 79, the Score [20] was 100 and the Score [21] was 87. It also gave a Score [22] of 100, a Score [23] of 85 and a Score [24] of 95. For the same molecule, the Score [25] was 100, the Score [26] was 100 and the Score [27] was 94. It also gave a Score [28] of 98, a Score [29] of 93 and a Score [30] of 100. It also gave a Score [31] of 100, a Score [32] of 87 and a Score [33] of 97. For the same molecule, the Score [34] was 100, the Score [35] was 71 and the Score [36] was 100. It also gave a Score [37] of 100.
